According to US20040057961A1, “Human t cell response to mhc-binding motif clusters” (priority 2000, published 2004):

Key:
[1] = system: peripheral blood mononuclear cells from Mtb-immune (PPD skin-test positive) subjects; test: Lymphoproliferation assay ([3H]thymidine, stimulation index) with PBMC of Mtb-immune subjects; type: cell-based, human; conditions: for number of Mtb-immune responders (proliferative response SI≧2.0): all Mtb-immune subjects; for Phil % responders (n = 38) / Phil # responders (n = 38): Philippines cohort; for Phil % responders (n = 38) / Phil # responders (n = 38) / Prov % responders (n = 22) / Prov # responders (n = 22): response positive if SI≧2.0; for Phil # responders (n = 38) / Prov # responders (n = 22): peptide 1 and 10 μg/ml; for Prov % responders (n = 22) / Prov # responders (n = 22): Providence cohort
[2] = system: peripheral blood mononuclear cells from Mtb-naive (PPD skin-test negative) subjects; test: Lymphoproliferation assay ([3H]thymidine, stimulation index) with PBMC of Mtb-naive subjects; type: cell-based, human; conditions: n=19

Substance	number of Mtb-immune responders (proliferative response SI≧2.0) ([1]; n=40)	Phil % responders (n = 38) [1] [%]	Phil # responders (n = 38) [1]	Prov % responders (n = 22) [1] [%]	Prov # responders (n = 22) [1]	further results
AELPGVDPDKDVD (listed as Mycobacterium tuberculosis) [16-3, 16 kDa Mtb protein, amino acids 54-66]	one	–	–	–	–	–
CEVWSNVSETISGPRLYGEM (listed as Mycobacterium tuberculosis) [14-5, 14 kDa Mtb protein, amino acids 74-93]	–	5	2	5	2	–
FAYGSFVRTVSLPVGA (listed as Mycobacterium tuberculosis) [16-5, 16 kDa Mtb protein, amino acids 92-107]	six	–	–	–	–	% responders among Mtb-immune subjects ([1]; n=40): 28%; Mtb-naive controls that responded [2]: none
FSELFAAFPSFAGLRPTFDT [16-2, 16 kDa Mtb protein, amino acids 17-36]	–	10	4	3	1	–
GSFGSAPSNGWLKLGLVEFG (listed as Mycobacterium tuberculosis) [14-2, 14 kDa Mtb protein, amino acids 19-38]	six	15	6	8	3	–
KFLEGFVRTSNIKFQD (listed as Mycobacterium tuberculosis) [32-9, 32 kDa Mtb protein, amino acids 227-242]	six	–	–	–	–	–
LAIGGAATGIAAVLTDGNPP [19-3]	six	–	–	–	–	–
LAIYHPQQFVYAGAMSGLLD (listed as Mycobacterium tuberculosis) [32-7, 32 kDa Mtb protein, amino acids 135-154]	six	–	–	–	–	–
LKLGLVEFGGVAKLNAEVMS (listed as Mycobacterium tuberculosis) [14-3, 14 kDa Mtb protein, amino acids 30-49]	six	8	3	10	4	–
MLGNAPSVVPNTTLGMHC (listed as Mycobacterium tuberculosis) [14-1, 14 kDa Mtb protein, amino acids 1-18]	–	5	2	5	2	–
PLLNVGKLIANNTRVWVY (listed as Mycobacterium tuberculosis) [32-8, 32 kDa Mtb protein, amino acids 193-210]	–	–	–	–	–	% responders among Mtb-immune subjects ([1]; n=40): 25%; Mtb-naive controls that responded [2]: none
QAVMLGTGTPNRA (listed as Mycobacterium tuberculosis) [14-4, 14 kDa Mtb protein, amino acids 56-68]	–	8	3	3	1	–
QNVTGSVVCTTAAGNVN [19-2]	six	–	–	–	–	–
RHVKPTGSAVVGLSMAASSA [32-5, 32 kDa Mtb protein, amino acids 113-132]	six	–	–	–	–	–
RSLFPEFSELFAAFPSFAGL (listed as Mycobacterium tuberculosis) [16-1, 16 kDa Mtb protein, amino acids 11-30]	six	10	4	5	2	–
SVVMPVGGQSSFYSDW (listed as Mycobacterium tuberculosis) [32-3, 32 kDa Mtb protein, amino acids 67-82]	only a few	–	–	–	–	–
TT: tetanus toxoid, control antigen (Connaught) [reference compound]	–	–	–	–	–	Mtb-immune subjects showing a proliferative response in vitro ([1]; control antigen 5 μg/ml, n=40): All but six; stimulation index (SI) range ([1]; control antigen 5 μg/ml, range over responding subjects): 2-182; Mtb-naive controls not showing a proliferative response ([2]; control antigen 5 μg/ml): one
VGLSMAASSALTLAIYHPQQ (listed as Mycobacterium tuberculosis) [32-6, 32 kDa Mtb protein, stop at amino acid 142]	six	–	–	–	–	–
VSETISGPRLYGEMTMQGTR (listed as Mycobacterium tuberculosis) [14-6, 14 kDa Mtb protein, amino acids 80-99]	–	3	1	3	1	–
phytohemagglutinin [reference compound]	–	–	–	–	–	response to mitogen in words ([1]; 1 μg/ml, the 41 subjects who were tested (both groups)): robust response
